Experimental findings from publication PMC9956870, “Exploring functional and structural features of chemically related natural prenylated hydroquinone and benzoic acid from Piper crassinervium (Piperaceae) on bacterial peroxiredoxin inhibition” (PLOS ONE, 2023) are described below.

Assay [1] concerns the target T1, alkyl hydroperoxide reductase C (SeAhpC) (Staphylococcus epidermidis, UniProt Q8CMQ2).
T1 construct: gene ahpC
T1 sequence (Q8CMQ2 1-189): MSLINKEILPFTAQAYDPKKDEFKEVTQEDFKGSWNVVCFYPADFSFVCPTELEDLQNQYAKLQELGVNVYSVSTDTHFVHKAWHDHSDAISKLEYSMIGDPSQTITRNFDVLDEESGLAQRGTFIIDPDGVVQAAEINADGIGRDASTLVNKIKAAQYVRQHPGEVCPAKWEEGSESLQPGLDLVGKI
Put plainly: NADPH-coupled peroxidase assay. Type of assay: biochemical.

The next assay has as its target T2, Prx2 (HsPrx2) (Homo sapiens, UniProt P32119).
T2 construct: gene PRDX2
T2 sequence (P32119 2-198): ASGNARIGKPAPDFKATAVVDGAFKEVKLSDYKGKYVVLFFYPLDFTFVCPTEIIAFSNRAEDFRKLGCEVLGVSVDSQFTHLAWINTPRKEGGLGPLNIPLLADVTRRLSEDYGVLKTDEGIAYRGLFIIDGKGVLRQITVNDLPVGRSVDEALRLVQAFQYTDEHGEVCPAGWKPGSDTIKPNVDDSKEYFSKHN
Kind of assay: NADPH-coupled peroxidase assay (yeast Trx system). It is filed as biochemical.

For the compound `CCN1C(=O)C=CC1=O` [NEM, N-ethylmaleimide], the NADPH-coupled peroxidase assay result in assay [1] is “As expected for the samples subjected to NEM treatment, no peroxidase activity was detected to both enzymes”. Also, the peroxidase initial rate at Prx2 (HsPrx2) was 0.02 ± 0.01 μMs^-1 (v0; untreated 0.62 ± 0.03).
